Measurements taken from the NIST ThermoML archive (doi:10.1016/j.jct.2018.12.002).
Numbers after ± are expanded uncertainties.

Experiment: molar heat capacity at constant pressure
Details: 1943 K; 101.33 kPa; Liquid; Levitation methods

- molar heat capacity at constant pressure: 44.9 ± 4.3 J/K/mol
Compound: [Ti] [titanium]
